{"source": "patent US12559461B2", "about": "“Antibiotic adjuvant compounds” (UNIVERSITY OF NOTRE DAME DU LAC, priority 2020, dated 2026)", "type_in_all_cases": "cell-based, Acinetobacter baumannii", "key": {"[1]": {"system": "A. baumannii isolates (23 strains)", "assay": "Minimum inhibitory concentration against AB isolates", "details": "Acinetobacter baumannii, compound alone, read-out: Minimum inhibitory concentration of compound", "procedure": "(§1) Broth microdilution method for MIC determination. Day cultures (6 h) of each bacterial strain in cation adjusted Mueller Hinton II broth (CAMHB, Fisher Scientific U.S.) were subcultured to 5×10^5 CFU/mL in CAMHB. Aliquots (1 mL) were placed in culture tubes and compound was added from 10 mM stock samples in DMSO, such that compound concentration equaled highest concentration tested (200 μM). Samples were then aliquoted (200 μL) into the first wells of a 96-well plate, with all remaining wells being filled with 100 μL of initial bacterial subculture. Row one wells were mixed five times, before 100 μL was transferred to row two. Row two was then mixed five times, and 100 μL was transferred to row three. This process was repeated until the final row had been mixed; this served to serially dilute the compound. Plates were then covered with GLAD Press n'Seal and incubated under stationary conditions at 37° C. for 16 h. MIC values were then recorded as the lowest concentration at which no bacterial growth was observed."}, "[2]": {"system": "AB5075", "assay": "Broth microdilution clarithromycin (CLR) potentiation and dose-response of adjuvant", "procedure": "(§2) Bacterial Strains and Antimicrobial Agents. Acinetobacter baumannii clinical isolate 5075 was obtained from Dr. Colin Manoil at the University of Washington. Colonies were grown on lysogeny broth (LB) agar. Cation-adjusted Mueller-Hinton Broth (CAMHB) (catalog number 212322) were purchased from BD Diagnostics. LB broth was purchased from Fisher Scientific (catalog number BP9722-2). […] Colistin sulfate salt (catalog number C4461) was purchased from Sigma Aldrich. All assays were completed in duplicate and repeated at least two separate times. All compounds were dissolved as their HCl salts in molecular biology grade DMSO as 10 or 100 mM stock solutions and stored at −20° C. Colistin was dissolved in sterile water while clarithromycin was dissolved in molecular biology grade DMSO.\n(§3) Broth microdilution method for antibiotic potentiation. Day cultures (6 h) of bacteria in CAMHB were subcultured to 5×10^5 CFU/mL in CAMHB. Aliquots (4 mL) were placed in culture tubes and dosed with compound from 10 mM stock samples to give the desired concentration of the compound to be tested against the particular bacterial strain; this insured non-toxic DMSO concentrations ≤0.3% in each well. 1 mL of the resulting solution was placed in a separate culture and dosed with antibiotic at the highest concentration to be tested. Bacteria treated with antibiotic alone served as the control. Row one of a 96-well plate was filled with 200 μL of the antibiotic/2-AI solution, and rows 2-12 were filled with 100 μL each of the remaining 4 mL of bacterial subculture containing adjuvant at the desired concentration, except for the control lane which contained only bacterial subculture. Row one was then mixed five times, and 100 μL was transferred to row two, which was then mixed five times before being transferred to row three. This process was repeated until all rows had been mixed, except for row twelve which would have only 2-AI to serve as a control to monitor potential toxicity. The 96-well plate was then covered in Glad Press n'Seal and incubated under stationary conditions at 37° C. for 16 h. MIC values were determined as the lowest concentration at which no bacterial growth was observed, and fold reductions were determined by comparison to antibiotic control lane.\nDose-response of Adjuvant Assay. The procedure for ‘broth microdilution method for antibiotic potentiation’ was followed using 4 mL aliquots of adjuvant at various concentrations: 0, 5, 7.5, 10, 15, 20, 25, and 30 μM."}, "[3]": {"system": "A. baumannii isolates (23 strains)", "assay": "Clarithromycin potentiation against AB isolates", "details": "adjuvant at 7.5 μM", "procedure": "as §3"}, "[4]": {"system": "AB5075", "assay": "Broth microdilution MIC of compound alone (standalone toxicity)", "details": "Acinetobacter baumannii", "procedure": "as §2, §1"}}, "note": "Like-named read-outs stand apart in the source and are kept apart here.", "data": [{"smiles": "Cl.Nc1nc(-c2ccc(NC(=O)Nc3cc(Br)cc(Br)c3)cc2)c[nH]1", "note": "[Compound 20a, 1-(4-(2-amino-1H-imidazol-4-yl)phenyl)-3-(3,5-dibromophenyl)urea hydrochloride]", "values": [{"measurement": "MIC", "setting": "[1]; A. baumannii strain 3560", "result": 25, "unit": "µM"}, {"measurement": "MIC", "setting": "[1]; A. baumannii strain 3785", "result": 50, "unit": "µM"}, {"measurement": "MIC", "setting": "[1]; A. baumannii strain 3806", "result": 25, "unit": "µM"}, {"measurement": "MIC", "setting": "[1]; A. baumannii strain 3927", "result": 100, "unit": "µM"}, {"measurement": "MIC", "setting": "[1]; A. baumannii strain 4025", "result": 100, "unit": "µM"}, {"measurement": "MIC", "setting": "[1]; A. baumannii strain 4026", "result": 50, "unit": "µM"}, {"measurement": "MIC", "setting": "[1]; A. baumannii strain 4027", "result": 50, "unit": "µM"}, {"measurement": "MIC", "setting": "[1]; A. baumannii strain 4052", "result": 50, "unit": "µM"}, {"measurement": "MIC", "setting": "[1]; A. baumannii strain 4269", "result": 50, "unit": "µM"}, {"measurement": "MIC", "setting": "[1]; A. baumannii strain 4448", "result": 100, "unit": "µM"}, {"measurement": "MIC", "setting": "[1]; A. baumannii strain 4456", "result": 25, "unit": "µM"}, {"measurement": "MIC", "setting": "[1]; A. baumannii strain 4490", "result": 100, "unit": "µM"}, {"measurement": "MIC", "setting": "[1]; A. baumannii strain 4498", "result": 50, "unit": "µM"}, {"measurement": "MIC", "setting": "[1]; A. baumannii strain 4795", "result": 25, "unit": "µM"}, {"measurement": "MIC", "setting": "[1]; A. baumannii strain 4857", "result": 50, "unit": "µM"}, {"measurement": "MIC", "setting": "[1]; A. baumannii strain 4878", "result": 50, "unit": "µM"}, {"measurement": "MIC", "setting": "[1]; A. baumannii strain 4957", "result": 50, "unit": "µM"}, {"measurement": "MIC", "setting": "[1]; A. baumannii strain 4991", "result": 50, "unit": "µM"}, {"measurement": "MIC", "setting": "[1]; A. baumannii strain 5001", "result": 50, "unit": "µM"}, {"measurement": "MIC", "setting": "[1]; A. baumannii strain 5197", "result": 25, "unit": "µM"}, {"measurement": "MIC", "setting": "[1]; A. baumannii strain 5256", "result": 25, "unit": "µM"}, {"measurement": "MIC", "setting": "[1]; A. baumannii strain 5711", "result": 25, "unit": "µM"}, {"measurement": "MIC", "setting": "[1]; A. baumannii strain 8967", "result": 100, "unit": "µM"}, {"measurement": "CLR MIC", "setting": "[2]; compound tested at 5 μM", "result": 4, "unit": "µg/mL"}, {"measurement": "Fold Reduction of CLR MIC", "setting": "[2]; compound tested at 5 μM", "result": 8, "unit": "fold"}, {"measurement": "CLR MIC", "setting": "[2]; compound tested at 7.5 μM", "result": 0.25, "unit": "µg/mL"}, {"measurement": "Fold Reduction of CLR MIC", "setting": "[2]; compound tested at 7.5 μM", "result": 128, "unit": "fold"}, {"measurement": "CLR MIC", "setting": "[2]; compound tested at 15 μM", "result": 0.125, "unit": "µg/mL"}, {"measurement": "Fold Reduction of CLR MIC", "setting": "[2]; compound tested at 15 μM", "result": 256, "unit": "fold"}, {"measurement": "CLR MIC + adjuvant", "setting": "[3]; A. baumannii strain 3560", "result": 1, "unit": "µg/mL"}, {"measurement": "CLR MIC + adjuvant", "setting": "[3]; A. baumannii strain 3785", "result": 1, "unit": "µg/mL"}, {"measurement": "CLR MIC + adjuvant", "setting": "[3]; A. baumannii strain 3806", "result": 0.25, "unit": "µg/mL"}, {"measurement": "CLR MIC + adjuvant", "setting": "[3]; A. baumannii strain 3927", "result": 0.5, "unit": "µg/mL"}, {"measurement": "CLR MIC + adjuvant", "setting": "[3]; A. baumannii strain 4025", "result": 1, "unit": "µg/mL"}, {"measurement": "CLR MIC + adjuvant", "setting": "[3]; A. baumannii strain 4026", "result": 1, "unit": "µg/mL"}, {"measurement": "CLR MIC + adjuvant", "setting": "[3]; A. baumannii strain 4027", "result": 1, "unit": "µg/mL"}, {"measurement": "CLR MIC + adjuvant", "setting": "[3]; A. baumannii strain 4052", "result": 0.5, "unit": "µg/mL"}, {"measurement": "CLR MIC + adjuvant", "setting": "[3]; A. baumannii strain 4269", "result": 2, "unit": "µg/mL"}, {"measurement": "CLR MIC + adjuvant", "setting": "[3]; A. baumannii strain 4448", "result": 0.5, "unit": "µg/mL"}, {"measurement": "CLR MIC + adjuvant", "setting": "[3]; A. baumannii strain 4456", "result": 1, "unit": "µg/mL"}, {"measurement": "CLR MIC + adjuvant", "setting": "[3]; A. baumannii strain 4490", "result": 1, "unit": "µg/mL"}, {"measurement": "CLR MIC + adjuvant", "setting": "[3]; A. baumannii strain 4498", "result": 2, "unit": "µg/mL"}, {"measurement": "CLR MIC + adjuvant", "setting": "[3]; A. baumannii strain 4795", "result": 0.5, "unit": "µg/mL"}, {"measurement": "CLR MIC + adjuvant", "setting": "[3]; A. baumannii strain 4857", "result": 0.5, "unit": "µg/mL"}, {"measurement": "CLR MIC + adjuvant", "setting": "[3]; A. baumannii strain 4878", "result": 0.5, "unit": "µg/mL"}, {"measurement": "CLR MIC + adjuvant", "setting": "[3]; A. baumannii strain 4957", "result": 0.5, "unit": "µg/mL"}, {"measurement": "CLR MIC + adjuvant", "setting": "[3]; A. baumannii strain 4991", "result": 0.5, "unit": "µg/mL"}, {"measurement": "CLR MIC + adjuvant", "setting": "[3]; A. baumannii strain 5001", "result": 1, "unit": "µg/mL"}, {"measurement": "CLR MIC + adjuvant", "setting": "[3]; A. baumannii strain 5197", "result": 1, "unit": "µg/mL"}, {"measurement": "CLR MIC + adjuvant", "setting": "[3]; A. baumannii strain 5256", "result": 0.25, "unit": "µg/mL"}, {"measurement": "CLR MIC + adjuvant", "setting": "[3]; A. baumannii strain 5711", "result": 1, "unit": "µg/mL"}, {"measurement": "CLR MIC + adjuvant", "setting": "[3]; A. baumannii strain 8967", "result": 0.25, "unit": "µg/mL"}, {"measurement": "MIC", "setting": "[4]", "result": 50, "unit": "µM"}]}]}
